In ChEMBL document CHEMBL5143674, “Discovery of benzo[d]oxazol-2(3H)-one derivatives as a new class of TNIK inhibitors for the treatment of colorectal cancer” (Bioorg Med Chem Lett, 2022):
The source made the active and inactive calls. The rule behind the calls is not given here.

Tests used:
[1] = system: HCT-116; assay: Antiproliferative activity against human HCT-116 cells assessed as inhibition of cell proliferation incubated for 72 hrs by MTT assay; format: functional, cell-based; settings: HCT-116, 72 h
[2] = target: TRAF2 and NCK-interacting protein kinase (Homo sapiens, UniProt Q9UKE5); assay: Inhibition of human recombinant TNIK (1 to 367 residues) using RLGRDKYKTLRQIRQ as substrate incubated for 40 mins in presence of Mg/ATP mix by [gamma p33]-ATP based radiometric scintillation counting method
[3] = system: HCT-116; assay: Inhibition of cell migration in human HCT-116 cells at 1 uM incubated for 24 to 48 hrs by wound-closure assay; format: functional, cell-based; settings: time 24-48 hrs
[4] = target: Vascular endothelial growth factor receptor 3 (Homo sapiens) (UniProt P35916); assay: Inhibition of human recombinant FLT4 (800 to end residues) using GGEEEEYFELVKKKK as substrate incubated for 40 mins in presence of [gamma-33P]-ATP by radiometric based scintillation counter assay
[5] = system: HCT-116; assay: Downregulation of Axin2 protein expression in human HCT-116 cells at 10 to 40 uM incubated for 48 hrs by western blot analysis; format: functional, cell-based; settings: dose 10-40 µM
[6] = system: HCT-116; assay: Inhibition of colony formation in human HCT-116 cells assessed as inhibition of cell proliferation at 1.25 to 5 uM incubated for 14 days by crystal violet staining based microscopic analysis; format: functional; settings: dose 1.25-5 µM, time 14.0 day, DDE = dose-dependent effect
[7] = target: Vascular endothelial growth factor receptor 2 (Homo sapiens) (UniProt P35968); assay: Inhibition of recombinant human KDR (790 to end residues) using myelin basic protein as substrate incubated for 40 mins in presence of [gamma-33P]-ATP by radiometric based scintillation counter assay
[8] = system: HCT-116; assay: Downregulation of nuclear TCF-4 protein expression in human HCT-116 cells at 10 to 40 uM incubated for 48 hrs by western blot analysis; format: functional, cell-based; settings: dose 10-40 µM, DDE = dose-dependent effect
[9] = system: HCT-116; assay: Downregulation of c-Myc protein expression in human HCT-116 cells at 10 to 40 uM incubated for 48 hrs by western blot analysis; format: functional, cell-based; settings: dose 10-40 µM
[10] = system: HCT-116; assay: Downregulation of nuclear beta-catenin protein expression in human HCT-116 cells at 10 to 40 uM incubated for 48 hrs by western blot analysis; format: functional, cell-based; settings: dose 10-40 µM, DDE = dose-dependent effect

Sequence of TRAF2 and NCK-interacting protein kinase (Q9UKE5 whole entry, the tested form may be a part): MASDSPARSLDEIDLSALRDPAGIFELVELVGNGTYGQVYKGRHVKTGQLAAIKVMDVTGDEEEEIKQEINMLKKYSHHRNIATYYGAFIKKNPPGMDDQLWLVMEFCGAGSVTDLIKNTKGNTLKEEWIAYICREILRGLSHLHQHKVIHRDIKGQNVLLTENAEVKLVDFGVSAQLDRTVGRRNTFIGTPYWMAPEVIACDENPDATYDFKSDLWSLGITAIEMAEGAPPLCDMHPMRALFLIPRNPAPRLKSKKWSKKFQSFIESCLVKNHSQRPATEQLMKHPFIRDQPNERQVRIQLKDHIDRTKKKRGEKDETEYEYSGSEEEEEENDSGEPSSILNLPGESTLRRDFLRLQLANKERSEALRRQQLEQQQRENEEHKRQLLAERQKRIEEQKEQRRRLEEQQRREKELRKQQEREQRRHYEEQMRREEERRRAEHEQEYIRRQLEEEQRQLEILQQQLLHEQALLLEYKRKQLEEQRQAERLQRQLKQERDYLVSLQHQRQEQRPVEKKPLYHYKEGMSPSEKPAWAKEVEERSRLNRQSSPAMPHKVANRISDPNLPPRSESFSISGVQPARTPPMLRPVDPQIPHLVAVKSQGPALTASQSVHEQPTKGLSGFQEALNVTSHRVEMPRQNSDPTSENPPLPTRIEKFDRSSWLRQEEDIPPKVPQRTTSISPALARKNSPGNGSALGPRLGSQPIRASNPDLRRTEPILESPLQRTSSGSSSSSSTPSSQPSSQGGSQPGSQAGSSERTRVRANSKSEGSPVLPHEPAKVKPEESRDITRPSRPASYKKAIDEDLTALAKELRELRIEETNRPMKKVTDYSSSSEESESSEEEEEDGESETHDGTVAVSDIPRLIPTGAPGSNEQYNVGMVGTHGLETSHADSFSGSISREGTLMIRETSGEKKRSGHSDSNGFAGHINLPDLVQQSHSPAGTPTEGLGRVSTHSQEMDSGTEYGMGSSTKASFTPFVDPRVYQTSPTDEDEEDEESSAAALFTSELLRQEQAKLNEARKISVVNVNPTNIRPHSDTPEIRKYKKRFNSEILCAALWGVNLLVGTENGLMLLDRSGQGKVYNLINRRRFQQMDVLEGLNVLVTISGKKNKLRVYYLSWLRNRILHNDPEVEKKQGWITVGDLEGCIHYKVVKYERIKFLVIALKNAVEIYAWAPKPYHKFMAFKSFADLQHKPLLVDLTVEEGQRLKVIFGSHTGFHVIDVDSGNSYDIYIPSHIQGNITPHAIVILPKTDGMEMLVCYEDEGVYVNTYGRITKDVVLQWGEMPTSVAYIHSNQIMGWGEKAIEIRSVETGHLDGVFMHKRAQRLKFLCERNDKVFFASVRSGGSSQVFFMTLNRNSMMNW
Sequence of Vascular endothelial growth factor receptor 3 (Homo sapiens) (P35916 whole entry): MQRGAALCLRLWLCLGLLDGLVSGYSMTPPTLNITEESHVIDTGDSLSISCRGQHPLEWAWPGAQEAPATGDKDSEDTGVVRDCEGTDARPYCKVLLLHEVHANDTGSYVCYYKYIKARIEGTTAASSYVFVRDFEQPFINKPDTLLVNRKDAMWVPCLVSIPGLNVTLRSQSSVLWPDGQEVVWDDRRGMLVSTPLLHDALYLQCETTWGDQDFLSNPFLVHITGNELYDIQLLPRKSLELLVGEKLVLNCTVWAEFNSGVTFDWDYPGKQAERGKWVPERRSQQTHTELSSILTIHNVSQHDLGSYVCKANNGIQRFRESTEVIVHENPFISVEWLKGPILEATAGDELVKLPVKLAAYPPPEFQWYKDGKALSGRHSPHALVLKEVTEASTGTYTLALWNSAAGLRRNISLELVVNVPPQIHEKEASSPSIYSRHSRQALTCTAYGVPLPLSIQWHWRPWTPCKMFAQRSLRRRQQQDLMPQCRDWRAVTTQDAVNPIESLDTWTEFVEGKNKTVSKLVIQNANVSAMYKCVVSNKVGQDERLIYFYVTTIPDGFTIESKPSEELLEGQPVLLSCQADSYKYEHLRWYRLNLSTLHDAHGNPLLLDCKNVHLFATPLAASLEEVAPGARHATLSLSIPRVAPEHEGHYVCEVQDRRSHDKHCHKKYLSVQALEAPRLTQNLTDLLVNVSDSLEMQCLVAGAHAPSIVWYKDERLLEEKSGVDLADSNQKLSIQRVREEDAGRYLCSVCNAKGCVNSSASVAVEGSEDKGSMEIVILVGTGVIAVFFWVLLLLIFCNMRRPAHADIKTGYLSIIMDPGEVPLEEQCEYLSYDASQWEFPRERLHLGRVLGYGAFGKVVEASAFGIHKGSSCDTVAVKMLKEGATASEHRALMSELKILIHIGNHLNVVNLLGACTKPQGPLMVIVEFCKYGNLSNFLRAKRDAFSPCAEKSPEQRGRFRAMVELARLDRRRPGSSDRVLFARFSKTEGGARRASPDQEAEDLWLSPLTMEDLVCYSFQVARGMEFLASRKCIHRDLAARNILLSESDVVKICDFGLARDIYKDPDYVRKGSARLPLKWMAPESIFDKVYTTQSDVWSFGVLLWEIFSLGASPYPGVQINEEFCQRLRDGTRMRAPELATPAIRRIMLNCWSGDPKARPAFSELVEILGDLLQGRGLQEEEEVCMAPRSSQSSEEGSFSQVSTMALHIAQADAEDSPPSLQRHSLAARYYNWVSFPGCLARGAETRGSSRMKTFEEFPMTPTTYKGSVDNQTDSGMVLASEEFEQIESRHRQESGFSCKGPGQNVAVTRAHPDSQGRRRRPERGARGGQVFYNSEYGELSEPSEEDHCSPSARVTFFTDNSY
Sequence of Vascular endothelial growth factor receptor 2 (Homo sapiens) (P35968 whole entry): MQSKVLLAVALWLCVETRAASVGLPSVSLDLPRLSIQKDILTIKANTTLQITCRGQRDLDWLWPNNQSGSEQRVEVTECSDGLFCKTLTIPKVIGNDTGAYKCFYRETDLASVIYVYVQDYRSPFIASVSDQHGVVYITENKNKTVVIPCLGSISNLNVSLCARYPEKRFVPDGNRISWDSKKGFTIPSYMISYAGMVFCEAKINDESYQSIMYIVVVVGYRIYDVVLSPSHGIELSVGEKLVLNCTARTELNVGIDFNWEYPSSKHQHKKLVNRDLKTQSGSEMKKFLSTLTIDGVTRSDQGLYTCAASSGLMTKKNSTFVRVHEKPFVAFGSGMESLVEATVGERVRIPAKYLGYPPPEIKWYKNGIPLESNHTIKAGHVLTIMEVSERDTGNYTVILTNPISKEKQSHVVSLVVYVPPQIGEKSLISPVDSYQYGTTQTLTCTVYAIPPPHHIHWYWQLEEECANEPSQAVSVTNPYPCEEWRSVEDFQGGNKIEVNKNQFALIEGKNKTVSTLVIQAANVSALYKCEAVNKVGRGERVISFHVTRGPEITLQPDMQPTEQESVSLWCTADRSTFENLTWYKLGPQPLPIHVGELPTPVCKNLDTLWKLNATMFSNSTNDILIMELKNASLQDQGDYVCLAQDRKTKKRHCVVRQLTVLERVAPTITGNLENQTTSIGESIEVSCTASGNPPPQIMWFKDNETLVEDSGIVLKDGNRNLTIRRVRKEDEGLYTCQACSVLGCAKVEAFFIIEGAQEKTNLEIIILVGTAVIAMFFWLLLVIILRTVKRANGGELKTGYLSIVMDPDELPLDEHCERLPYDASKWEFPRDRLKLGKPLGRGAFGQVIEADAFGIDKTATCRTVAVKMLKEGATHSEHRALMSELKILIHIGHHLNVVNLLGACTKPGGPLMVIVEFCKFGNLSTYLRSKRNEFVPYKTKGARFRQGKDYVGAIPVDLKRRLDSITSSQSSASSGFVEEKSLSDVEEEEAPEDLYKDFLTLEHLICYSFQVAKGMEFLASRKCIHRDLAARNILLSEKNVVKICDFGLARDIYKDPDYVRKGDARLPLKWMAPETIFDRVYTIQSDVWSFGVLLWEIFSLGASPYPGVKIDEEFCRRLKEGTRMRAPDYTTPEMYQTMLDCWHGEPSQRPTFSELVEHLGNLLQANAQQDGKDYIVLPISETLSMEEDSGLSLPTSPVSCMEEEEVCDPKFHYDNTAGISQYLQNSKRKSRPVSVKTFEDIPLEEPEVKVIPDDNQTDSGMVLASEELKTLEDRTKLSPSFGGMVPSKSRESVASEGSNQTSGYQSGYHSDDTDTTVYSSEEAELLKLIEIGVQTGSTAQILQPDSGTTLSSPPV

| Structure (SMILES) | IC50 [1] [µM] | IC50 [2] [µM] | also measured |
| --- | --- | --- | --- |
| Nc1ccc(-c2ccc3c(c2)oc(=O)n3Cc2ccc(F)cc2)cn1 | 16.5 | 0.234 |  |
| N#Cc1cc(-c2ccc3c(c2)oc(=O)n3Cc2ccc(F)cc2)cnc1N | 8.25 | 0.156 |  |
| O=c1oc2cc(-c3c[nH]c4ncccc34)ccc2n1Cc1ccc(F)cc1 | 11.8 | 0.228 |  |
| O=c1oc2cc(-c3ccc4scnc4c3)ccc2n1Cc1ccc(F)cc1 |  | > 10 |  |
| O=c1oc2cc(-c3cnc4cnccn34)ccc2n1Cc1ccc(F)cc1 |  | > 10 |  |
| O=c1oc2cc(-c3cnc4[nH]ccc4c3)ccc2n1Cc1cccc(C(F)(F)F)c1 |  | 2.84 |  |
| COc1cccc(Cn2c(=O)oc3cc(-c4cnc5cc[nH]c5c4)ccc32)c1 |  | > 10 |  |
| O=c1oc2cc(-c3cnc4[nH]ccc4c3)ccc2n1Cc1cccc(OC(F)F)c1 |  | 1.74 |  |
| O=c1oc2cc(-c3cnc4[nH]ccc4n3)ccc2n1Cc1ccc(F)cc1 |  | 4.08 |  |
| O=c1oc2cc(-c3cnc4[nH]ccc4c3)ccc2n1Cc1cccc(F)c1 | 5.92 | 0.09 |  |
| O=c1oc2cc(-c3cnc4[nH]ccc4c3)ccc2n1Cc1ccc(F)cc1 | 5.99 | 0.11 |  |
| N#Cc1cccc(Cn2c(=O)oc3cc(-c4cnc5[nH]ccc5c4)ccc32)c1 |  | > 10 |  |
| COc1cccc(Cn2c(=O)oc3cc(-c4ccnc5[nH]ccc45)ccc32)c1 |  | 9 |  |
| COc1cc(Cn2c(=O)oc3cc(-c4cnc5[nH]ccc5c4)ccc32)ccc1F | 8.05 | 0.719 |  |
| Cc1cccc(Cn2c(=O)oc3cc(-c4cnc5[nH]ccc5c4)ccc32)c1 | 5.12 | 0.356 |  |
| COc1cccc(Cn2c(=O)oc3cc(-c4ccc5[nH]c(C(=O)NC6CC6)cc5c4)ccc32)c1 |  | > 10 |  |
| O=c1oc2cc(-c3cnc4[nH]ccc4c3)ccc2n1Cc1cccc(OC(F)(F)F)c1 | 7.06 | 0.289 |  |
| Nc1ncnn2c(-c3ccc4c(c3)oc(=O)n4Cc3ccc(F)cc3)ccc12 | > 100 | 0.663 |  |
| O=c1oc2cc(-c3ccc4nncn4c3)ccc2n1Cc1ccc(F)cc1 |  | > 10 |  |
| O=c1oc2cc(-c3cnc4[nH]ccc4c3)ccc2n1Cc1ccccc1F |  | 1.05 |  |

| Structure (SMILES) | IC50 [1] [µM] | IC50 [2] [µM] | also measured |
| --- | --- | --- | --- |
| COc1cccc(Cn2c(=O)oc3cc(-c4cnc5[nH]ccc5n4)ccc32)c1 |  | 3.98 |  |
| COc1cccc(Cn2c(=O)oc3cc(-c4ccc(N)nc4)ccc32)c1 | 7.44 | 0.412 |  |
| O=c1oc2cc(-c3cnc4ncccn34)ccc2n1Cc1ccc(F)cc1 |  | > 10 |  |
| O[C@H]1CC[C@@H](Oc2cccc3cnc(Nc4ccc5nc[nH]c5c4)nc23)CC1 | 0.403 |  |  |
| COc1cccc(Cn2c(=O)oc3cc(-c4cncnc4)ccc32)c1 |  | 5.61 |  |
| O=c1oc2cc(-c3ccc4[nH]ccc4c3)ccc2n1Cc1ccc(F)cc1 |  | 1.26 |  |
| O=c1oc2cc(-c3ccc4ncnn4c3)ccc2n1Cc1ccc(F)cc1 |  | 2.44 |  |
| COc1cccc(Cn2c(=O)oc3cc(-c4ccc5[nH]ccc5c4)ccc32)c1 |  | 1.16 |  |
| O=c1cnc2cc(-c3ccc4c(c3)oc(=O)n4Cc3ccc(F)cc3)ccc2[nH]1 |  | > 10 |  |
| O=c1oc2cc(-c3ccnc4[nH]ncc34)ccc2n1Cc1ccc(F)cc1 | > 100 | 0.91 |  |
| COc1cccc(Cn2c(=O)oc3cc(-c4cnc5[nH]ccc5c4)ccc32)c1 | 5 | 0.05 | inhibition [3]: Active; inhibition [4]: > 80%; Activity [5]: Active; inhibition [6]: Dde; inhibition [7]: > 80%; Activity [8]: Dde; Activity [9]: Active; Activity [10]: Dde |
| COc1cccc(Cn2c(=O)oc3cc(-c4cccnc4)ccc32)c1 |  | 3.99 |  |
| COc1cccc(Cn2c(=O)oc3cc(-c4ccc5[nH]cc(C(=O)NC6CC6)c5c4)ccc32)c1 |  | > 10 |  |
| O=c1oc2cc(-c3ccn4ncnc4c3)ccc2n1Cc1ccc(F)cc1 |  | 4.44 |  |
| O=c1oc2cc(-c3cnc4ccnn4c3)ccc2n1Cc1ccc(F)cc1 |  | > 10 |  |
| COc1cc(-c2ccc3c(c2)oc(=O)n3Cc2ccc(F)cc2)cnc1N | 36.4 | 0.61 |  |
| COc1cccc(Cn2c(=O)oc3cc(-c4cnc(C#N)c(C)c4)ccc32)c1 |  | > 10 |  |
| O=c1oc2cc(-c3cnc4cccnn34)ccc2n1Cc1ccc(F)cc1 |  | > 10 |  |
| COc1cccc(Cn2c(=O)oc3cc(-c4ccc5c(c4)CCN5)ccc32)c1 | > 100 | 0.265 |  |
